# Data from patent US20240374753A1, “USE OF AN AGONIST OF FORMYL PEPTIDE RECEPTORS 1 AND 2 FOR TREATING OCULAR INFLAMMATORY DISEASES” (ALLGENESIS BIOTHERAPEUTICS INC., priority 2023, published 2024).
# Key:
# [1] = system: patients with dry eye disease; experiment: Corneal fluorescein staining (NEI Scale), Phase 1b study; type: in vivo, human; details: for Corneal staining, unit improvement from baseline: p<0.05
# Protocol: (§1) A multicenter, double-masked, randomized, parallel-group Phase 1b study evaluating the safety, tolerability, and dose-response of AG-80308 ophthalmic solution administered twice daily for 3 months in 84 patients with dry eye disease was conducted. […] 2-Hydroxypropyl-beta-cyclodextrin (HPβCD) was used in formulations A and B. The efficacy measures included both signs (ocular surface staining, tear film breakup time, Schirmer's test, meibomian gland assessments) and symptoms (7-item visual analog scale (VAS) assessments: burning/stinging, itching, foreign body sensation, eye discomfort, eye dryness, photophobia, pain and ocular surface disease index).
# (§2) In this study, a single eye drop (approximately 30 μL) of AG-80308 was administered BID (approximately 12 hours apart) to the study eye every day until the Day 84 visit.
# Corneal fluorescein staining was assessed in each eye at Visit 1 (Day −30 to Day −2), Visit 2 (Day 1), Visit 4 (Day 43), and Visit 5 (Day 84) using the NEI Scale. The NEI Scale uses a standardized grading system of 0 to 3 using whole number units for each of the […] areas on each cornea. Grade 0 was specified when no staining is present.
# [2] = system: patients with dry eye disease; experiment: 7-item VAS symptom assessment, Phase 1b study; type: in vivo, human; details: overall study summary
# Protocol: as §1, §2
# The VAS symptom assessment was performed at Visit 1 (Day −30 to Day −2), Visit 2 (Day 1), Visit 3 (Day 15), Visit 4 (Day 43), and Visit 5 (Day 84). Subjects were asked to rate each ocular symptom, unrelated to study drug instillation, by placing a vertical mark on the horizontal line to indicate the level of discomfort. Zero millimeters (mm) corresponds to “no discomfort” and 100 mm corresponds to “maximal discomfort. The symptoms evaluated were burning/stinging, itching, foreign body sensation, eye discomfort, eye dryness, photophobia, and pain. […]
# [3] = system: patients with dry eye disease; experiment: Safety and tolerability (TEAEs), Phase 1b study; type: in vivo, human; details: BID for 3 months, both formulations
# [4] = system: patients with dry eye disease; experiment: Ocular surface disease index, Phase 1b study; type: in vivo, human; details: overall study summary
# Protocol: as §1, §2
# Preclinical studies = type: in vivo
# [5] = Stabilisation/solubility of AG-80308 with HPβCD; type: physicochemical; details: storage or stress conditions
structure (smiles),measurement,setting,value
"CC(C)C[C@H](NC(=O)Nc1ccc(Br)cc1)C(=O)NCC(=O)O [AG-80308, {[(2S)-2-{[(4-bromophenyl)carbamoyl]amino}-4-methylpentanoyl]amino}acetic acid]","Corneal staining, unit improvement from baseline","[1]; Day 43, LS Mean±SE",−2.1±0.57
same,"Corneal staining, unit improvement from baseline","[1]; Day 84, LS Mean±SE",−2.7±0.57
same,Corneal and conjunctival staining,[1]; overall study summary,clinically meaningful unit reductions
same,7-item visual analog scale for dry eye symptoms,[2],clinically meaningful unit reductions
same,Safety,[3],proven safe
same,Ocular surface disease index scores,[4],clinically meaningful unit reductions
same,Efficacy in preclinical studies,Preclinical studies,rapid efficacy similar to steroids without any impairment of wound healing
same,Safety and tolerability in preclinical studies,Preclinical studies,wide margin of safety and tolerability
same,Effect of HPβCD on stability and solubility of AG-80308,[5],"increasing solubility of AG-80308 and its degradant, preventing precipitation"
